The values below are quoted from earlier work in patent US12225905B2, “Antimicrobial superabsorbent compositions” (Matoke Holdings Limited, priority 2017, dated 2025).

The conditions of this data set: 20° C. and 1 atm.

Molecules are shown by their SMILES.

As for `O=C(CO)[C@@H](O)[C@H](O)[C@H](O)CO` [Fructose], the solubility result is reported as “about 375 g/100 g water”.
